Reference: patent US20110070211A1 (priority 2009, published 2011)

Test system: DU-145 cells
Format: cell-based, Human

Structure (SMILES): C=C1[C@@H](C)[C@H]2[C@H](Cc3ccccc3)NC(=O)[C@]23[C@H](OC(C)=O)/C=C/[C@@](C)(O)C(=O)[C@@H](C)C/C=C/[C@H]3[C@@H]1O [Cytochalasin-D]
- Effect on cell migration: did not migrate
- Relative Wound Density at 24 Hours, Mean: 3.3 ± 0.2
- Relative Wound Density at 24 Hours, Percent Relative to Media: 4%
